The numbers were not newly measured in publication PMC7395068, “The evolution of strategies to minimise the risk of human drug-induced liver injury (DILI) in drug discovery and development” (Archives of Toxicology, 2020), which cites them from elsewhere.

Like-named read-outs stand apart in the source and are kept apart here.

The conditions of data set [1]: cited from earlier work.
The conditions of data set [2]: cited from earlier work. The source holds these as a separate data set.
The conditions of data set [3]: cited from earlier work. This is another data set of the same source.
In data set [4] the test system is THLE or HepG2 cells, isolated mitochondria, BSEP. The settings on record: ref Aleo 2019, cited from earlier work.
In data set [5] the test system is HepG2 C3A spheroid, BSEP, Glu/Gal in HepG2 cells, bioactivation. The settings on record: In vitro Assay; ref Williams 2019; cited from earlier work.
Data set [6] deals with THLE-Null and THLE-3A4 cells. Conditions: In vitro Assay; ref Gustafsson 2014; cited from earlier work.
The subject of the next data set is rBsep. Conditions: In vitro Assay; ref Dawson 2012; cited from earlier work.
Data set [7] relates to HepG2 cells, primary human hepatocytes. Conditions: In vitro Assay; ref Garside 2014; cited from earlier work.
The mark [8] stands for this setting: FDA drug labelling score, ref Chen 2011.
[9] abbreviates: LTKB DILIrank category, ref Chen 2016.
Setting [10] is: binary DILI call, ref Chen 2016.
The mark [11] stands for this setting: score by FDA drug labelling, scale 1-8, ref Chen 2011.
The mark [12] stands for this setting: binary in vivo DILI call given beside the severity category, ref Chen 2016.
The mark [13] stands for this setting: human DILI concern category (LTKB DILIrank), ref Chen 2016.

In the case of `CCc1cccc2c3c([nH]c12)C(CC)(CC(=O)O)OCC3` (centres unmarked) [etodolac], the “DILI Score (FDA) (1-8)” value in data set [1] (ref Chen 2011) was 8. Also, in data set [2] (ref Chen 2016), the “DILI +VE (5-8), DILI -VE (-4)” value is “+VE” and the DILI severity category entry is given as “vMost-DILI-Concern”. Also, in data set [3] (ref Aleo 2019), the “In vivo DILI” value was “+VE”. The “Ro2 Hybrid HRM Score” value in data set [4] (In vitro Assay) is “+VE”.
Consider `O=C(O)Cc1csc(-c2ccc(Cl)cc2)n1` [fenclozic acid], for which the “Bayesian Machine Learning” value in data set [5] is reported as “+VE”. For the same compound, in data set [6], the THLE-Null result is recorded as “-VE” and the THLE-Null/3A4 entry is “-VE”. For the same compound, in data set [2] (ref Chen 2016), the “DILI +VE (5-8), DILI -VE (-4)” value is recorded as “+VE” and the DILI severity category result was “vMost-DILI-Concern”. Further, the “In vivo DILI” value in data set [3] (ref Dawson 2012) is on record as “+VE”. Also, the “In vivo DILI” value in data set [3] (ref Garside 2014) is “+VE”. Besides, in data set [3] (ref Gustafsson 2014), the “In vivo DILI” value is on record as “+VE”. For the same compound, the “In vivo DILI” value in data set [3] (ref Williams 2019) is listed as “+VE”. In the data set on rBsep, the “Inhibition of rBsep cutoff<1& cmax u>.2” value is “-VE” and the “Inhibition of rBsep cutoff<3” value is on record as “-VE”. For the same compound, in data set [7], the “Cluster 1-6 +VE Assay” value was “+VE”.
Turning to `CC(C(=O)O)c1cccc(Oc2ccccc2)c1` (centres unmarked) [fenoprofen], in data set [1] (ref Chen 2011), the “DILI Score (FDA) (1-8)” value was 8. For the same compound, in data set [2] (ref Chen 2016), the “DILI +VE (5-8), DILI -VE (-4)” value is reported as “+VE” and the DILI severity category entry was “vMost-DILI-Concern”. Also, the “In vivo DILI” value in data set [3] (ref Aleo 2019) is listed as “+VE”. In addition, in data set [4] (In vitro Assay), the “Partition Hybrid HRM Score” value was “+VE” and the “Ro2 Hybrid HRM Score” value was “+VE”.
With `Nc1nc(O)c2ncn(COC(CO)CO)c2n1` [ganciclovir], the “DILI Score (FDA) (1-8)” value in data set [1] (setting [8]) is listed as 7. Besides, the DILI severity category entry in data set [2] (setting [9]) was “Ambiguous DILI-concern”. Besides, the “DILI +VE (5-8), DILI -VE (-4)” value in data set [2] (setting [10]) is listed as “-VE”.
For `CCOC(=O)C1=C[C@@H](OC(CC)CC)[C@H](NC(C)=O)[C@@H](N)C1` [oseltamivir], in data set [1] (setting [8]), the “DILI Score (FDA) (1-8)” value is reported as 3. In addition, the DILI severity category result in data set [2] (setting [9]) is “Ambiguous DILI-concern”. In addition, the “DILI +VE (5-8), DILI -VE (-4)” value in data set [2] (setting [10]) is on record as “-VE”. The “Partition Hybrid HRM Score, In vitro Assay” value in data set [4] (Partition hybrid) was “+VE”. In addition, the “Ro2 Hybrid HRM Score, In vitro Assay” value in data set [4] (Rule of Two hybrid) was “-VE”.
In the case of `C[C@]12COC(=O)C[C@@H]1CC[C@@H]1[C@@H]2CC[C@@]2(C)[C@H]1CC[C@]2(C)O` [oxandrolone], the “DILI Score (FDA) (1-8)” value in data set [1] (setting [11]) is given as 8. In addition, in data set [2] (setting [12]), the “DILI +VE (5-8), DILI -VE (-4)” value is reported as “+VE”. For the same compound, the DILI severity category entry in data set [2] (setting [13]) is “vMost-DILI-Concern”.
Consider `CN(C)[C@@H]1C(O)=C(C(N)=O)C(=O)[C@@]2(O)C(O)=C3C(=O)c4c(O)cccc4[C@@](C)(O)[C@H]3[C@H](O)[C@@H]12` [oxytetracycline], for which, in data set [1] (setting [11]), the “DILI Score (FDA) (1-8)” value is on record as 2. The “DILI +VE (5-8), DILI -VE (-4)” value in data set [2] (setting [12]) is on record as “-VE”. The DILI severity category result in data set [2] (setting [13]) was “Ambiguous DILI-concern”.
As to `CC(C)(S)[C@@H](N)C(=O)O` [penicillamine], the “DILI Score (FDA) (1-8)” value in data set [1] (setting [11]) is 3. Also, the “DILI +VE (5-8), DILI -VE (-4)” value in data set [2] (setting [12]) was “+VE”. The DILI severity category result in data set [2] (setting [13]) was “vLess-DILI-Concern”.
For `C[C@]12C=CC(=O)C=C1CC[C@@H]1[C@@H]2[C@@H](O)C[C@@]2(C)[C@H]1CC[C@]2(O)C(=O)CO` [prednisolone], the “DILI Score (FDA) (1-8)” value in data set [1] (in vivo) is reported as 3. In addition, in data set [2] (in vivo), the “DILI +VE (5-8), DILI -VE (-4)” value is given as “+VE” and the DILI severity category result is listed as “vLess-DILI-Concern”. In addition, the “In vivo DILI” value in data set [3] (in vivo) is listed as “-VE”.
For `C[C@H](Cn1cnc2c(N)ncnc21)OCP(=O)(O)O` [tenofovir], the “DILI Score (FDA) (1-8)” value in data set [1] (setting [11]) is 8. Also, in data set [2] (setting [12]), the “DILI +VE (5-8), DILI -VE (-4)” value is reported as “+VE”. The DILI severity category result in data set [2] (setting [13]) is reported as “vLess-DILI-Concern”.
Turning to `CN(C)CCOc1ccc(/C(=C(/CCCl)c2ccccc2)c2ccccc2)cc1` [toremifene], the “DILI Score (FDA) (1-8)” value in data set [1] (setting [11]) is on record as 3. Further, the “DILI +VE (5-8), DILI -VE (-4)” value in data set [2] (setting [12]) is recorded as “-VE”. Also, the DILI severity category entry in data set [2] (setting [13]) is given as “Ambiguous DILI-concern”.
